The text below walks through data of patent US11179397B2, “Imidazopyrimidine derivatives” (Gilead Sciences, Inc., priority 2018, dated 2021).

One assay deals with NCI-H358 cells. The assay is described as follows: NCI-H358 3D tumor spheroid growth inhibition. The class given is cell-based. As to conditions: 3D spheroids, 7 days, 3D CellTiter Glo, cellular IC50 designated EC50, read-out: H358 EC50. From the text: SHP-2 Cell Based Assay: […] Materials NCI-H358 cell line was purchased from [NT] number ATCC CRL-5807) (Manassas, Va.). RPMI-1640 (Catalog number 10-040-CM) was from Corning Cellgro (Manassas, Va.), Fetal Bovine Serum (FBS) (Catalog number SH30071.03) was from HyClone (Logan, Utanh), and 100× Penicillin/Streptomycin/L-Glutamine stock (Catalog no. 30-009-CI) and 384-well ULA plates (Catalog number 3830) were from Corning (Fremont, Calif.). Method […] At the day of assay, the cells were trypsinized and seeded at 1000 cells/70 μl/well in 384-well ULA plates and incubated at 37° C. incubator with 5% CO2 to allow spheroids to form. […] The plates were incubated for additional 7 days. Then 35 μl of medium from each well was removed, and replaced with 35 μl of 3D CellTiter Glo reagent from Promega. The wells were mixed by pipetting up and down with Biomek FX for 15 times to induce cell lysis and the plates were incubated at room temperature for additional 10 min to stabilize luminescent signal. The luminescence was then read by Envision. The inhibitor dose response curves were generated using normalized cellular IC50 (designated as EC50 in all FIGURES to distinguish from biochemical IC50s) by in house dose response analyses tools. The wells with DMSO vehicle were used as negative controls (0% inhibition). The % inhibition of SHP-2 compounds was calculated as: 100-[(Compound well luminescence counts/DMSO luminescence counts)×100%].
Background: ATP-based viability assays read luminescence as a measure of living cells.

Assay [1] has as its target SHP-2 full length protein (Homo sapiens (Human), UniProt Q06124). The assay is described as follows: SHP-2 biochemical DiFMUP pseudosubstrate-fluorogenic assay. As to conditions: 0.2 nM SHP-2, 1 μM IRS-1 activator peptide, 50 μM DiFMUP; read-out: SHP2 IC50. How it is done:
SHP-2 Biochemical Assay Materials Recombinant SHP-2 full length protein was generated in house. SHP-2 protein tyrosine phosphatase (PTP) domain protein (Catalog number SPR0217-20 ug), NaCl (Catalog number S6546-1L), and KCl (Catalog number 60142-500 mL) were purchased from Sigma-Aldrich (St. Louis, Mo.). IRS-1_[…](dPEG8)[…] peptide […]) was custom made by AnaSpec (Fremont, Calif.). DiFMUP substrate (Catalog number D6567), EDTA (Catalog number E177-500 mL), DTT (Catalog number P2325), and 384-well black polystyrene non-binding surface (Catalog number 3820) were purchased from Fisher Scientific (Hanover Park, Ill.). HEPES (Catalog number 15630-080) was purchased from Life Technologies (Pleasanton, Calif.), and Tween-20 (Catalog number 95059-250) was purchased from VWR (Radnor, Pa.). Method Inhibition of SHP-2 activity by small molecule inhibitors was monitored by a biochemical DiFMUP pseudosubstrate-fluorogenic assay. […] The reaction mix was added to the 384-well non-binding plate which had been pre-spotted with 1:3 serial diluted compounds from 10,000-0.005 nM, and incubated at room temperature for 90 min. DiFMUP substrate at final concentration of 50 μM was then added to the wells and incubated for additional 30 min at room temperature. The final reaction volume was 20 μl/well. […] The inhibitor dose response curves were generated using normalized IC50 regression curve fitting by in house dose response analysis tools. The wells with DMSO vehicle were used as controls (100% signal). The percent (%) control of SHP-2 compound was calculated as: (Compound well fluorescence counts/DMSO fluorescence counts)×100%.

Where two headings read alike, the source gives them in different places.

SHP-2 full length protein, sequence (Q06124 whole entry): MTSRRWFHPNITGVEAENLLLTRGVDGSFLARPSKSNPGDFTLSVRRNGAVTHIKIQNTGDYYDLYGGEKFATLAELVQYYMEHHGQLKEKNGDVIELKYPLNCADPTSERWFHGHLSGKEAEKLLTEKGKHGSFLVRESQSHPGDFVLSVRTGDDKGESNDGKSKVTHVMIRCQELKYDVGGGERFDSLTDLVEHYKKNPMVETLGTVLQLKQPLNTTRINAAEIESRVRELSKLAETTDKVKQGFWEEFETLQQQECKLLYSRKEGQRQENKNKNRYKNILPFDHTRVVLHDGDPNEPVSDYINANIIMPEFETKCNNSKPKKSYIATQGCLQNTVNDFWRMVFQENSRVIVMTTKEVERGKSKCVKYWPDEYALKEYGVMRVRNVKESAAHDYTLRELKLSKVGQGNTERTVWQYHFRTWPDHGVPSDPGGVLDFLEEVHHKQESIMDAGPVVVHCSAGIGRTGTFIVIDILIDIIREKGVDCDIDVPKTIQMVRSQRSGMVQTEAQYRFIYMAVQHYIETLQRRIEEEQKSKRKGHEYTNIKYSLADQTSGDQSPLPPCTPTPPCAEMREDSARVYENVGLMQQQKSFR

With `Cc1nc(N2CCC3(CCC[C@H]3N)CC2)n2ccnc2c1-c1cccc(Cl)c1Cl` (single isomer, unassigned) [Example 10], in the assay with NCI-H358 cells, the EC50 (as a rule, the concentration at which the effect is half-maximal) is 970 nM. Moreover, the 50% inhibitory concentration (IC50) (usually the concentration that inhibits the measured activity by half) in assay [1] came to 52 nM. Turning to `Cc1nc(N2CCC3(CCC[C@H]3N)CC2)n2ccnc2c1-c1cccc(Cl)c1Cl` (single isomer, unassigned) [Example 11], the EC50 with NCI-H358 cells came out at 60 nM. Moreover, the IC50 in assay [1] came out at 3.6 nM. For `Cc1nc(N2CCC3(CC2)CO[C@@H](C)[C@H]3N)n2ccnc2c1-c1cccc(Cl)c1Cl` [Example 1, (3S,4S)-8-(8-(2,3-dichlorophenyl)-7-methylimidazo[1,2-c]pyrimidin-5-yl)-3-methyl-2-oxa-8-azaspiro[4.5]decan-4-amine], in the assay with NCI-H358 cells (Homo sapiens, NCI-H358, 168 h), the concentration for a half-maximal effect (EC50) came to 59 nM. Further, the IC50 in assay [1] was 2.8 nM. As to `Cc1nc(N2CCC3(CCC[C@H]3N)CC2)n2ccnc2c1-c1cccc2[nH]ccc12` [Example 2, (R)-8-(8-(1H-indol-4-yl)-7-methylimidazo[1,2-c]pyrimidin-5-yl)-8-azaspiro[4.5]decan-1-amine], the EC50 with NCI-H358 cells (Homo sapiens, NCI-H358, 168 h) was 590 nM. Also, the IC50 in assay [1] amounted to 47 nM. In the case of `Cc1nc(N2CCC3(CCC[C@H]3N)CC2)n2ccnc2c1-c1ccccc1` [Example 5, (R)-8-(7-methyl-8-phenylimidazo[1,2-c]pyrimidin-5-yl)-8-azaspiro[4.5]decan-1-amine], the EC50 in the assay with NCI-H358 cells (Homo sapiens, NCI-H358, 168 h) was found to be 670 nM. In addition, the IC50 in assay [1] was found to be 90 nM.

For `Cc1nc(N2CCC3(CCC[C@H]3N)CC2)n2ccnc2c1-c1cccc(C(F)(F)F)c1` [Example 7, (R)-8-(7-methyl-8-(3-(trifluoromethyl)phenyl)imidazo[1,2-c]pyrimidin-5-yl)-8-azaspiro[4.5]decan-1-amine], the EC50 with NCI-H358 cells (Homo sapiens, NCI-H358, 168 h) was greater than 12500 nM. The IC50 in assay [1] turned out to be 1300 nM.

`Cc1nc(N2CCC3(CCC[C@H]3N)CC2)n2ccnc2c1-c1cccc(Cl)c1Cl` [Example 9, (R)-8-(8-(2,3-dichlorophenyl)-7-methylimidazo[1,2-c]pyrimidin-5-yl)-8-azaspiro[4.5]decan-1-amine]: the 50% effective concentration (EC50) with NCI-H358 cells (Homo sapiens, NCI-H358, 168 h) was 120 nM. Moreover, the IC50 in assay [1] was found to be 4.1 nM. For `Cc1nc(N2CCC3(CCC[C@H]3N)CC2)n2ccnc2c1-c1sccc1Cl` [Example 12, (R)-8-(8-(3-chlorothiophen-2-yl)-7-methylimidazo[1,2-c]pyrimidin-5-yl)-8-azaspiro[4.5]decan-1-amine], in that order: 420 nM and 90 nM.

As for `Cc1nc(N2CCC3(CCC[C@H]3N)CC2)n2ccnc2c1-c1cnn(C)c1C` [Example 13, (R)-8-(8-(1,5-dimethyl-1H-pyrazol-4-yl)-7-methylimidazo[1,2-c]pyrimidin-5-yl)-8-azaspiro[4.5]decan-1-amine], the EC50 in the assay on NCI-H358 cells (Homo sapiens, NCI-H358, 168 h) stood at 3300 nM. Moreover, the IC50 in assay [1] turned out to be 1000 nM. Consider `Cc1nc(N2CCC3(CCC[C@H]3N)CC2)n2ccnc2c1-c1cnc2ccccn12` [Example 15, (R)-8-(8-(imidazo[1,2-a]pyridin-3-yl)-7-methylimidazo[1,2-c]pyrimidin-5-yl)-8-azaspiro[4.5]decan-1-amine], for which the EC50 in the assay with NCI-H358 cells (Homo sapiens, NCI-H358, 168 h) was 3200 nM. For the same compound, in assay [1], the IC50 stood at 350 nM. Turning to `Cc1nc(N2CCC3(CCC[C@H]3N)CC2)n2ccnc2c1Sc1ccnc(N)c1Cl` [Example 18, (R)-8-(8-((2-amino-3-chloropyridin-4-yl)thio)-7-methylimidazo[1,2-c]pyrimidin-5-yl)-8-azaspiro[4.5]decan-1-amine], the concentration for a half-maximal effect (EC50) in the assay with NCI-H358 cells (Homo sapiens, NCI-H358, 168 h) worked out at 75 nM. The 50% inhibitory concentration (IC50) in assay [1] stood at 5.6 nM. For `Cc1nc(N2CCC3(CCC[C@H]3N)CC2)n2ccnc2c1-c1cccc(Cl)c1` [Example 23, (R)-8-(8-(3-chlorophenyl)-7-methylimidazo[1,2-c]pyrimidin-5-yl)-8-azaspiro[4.5]decan-1-amine], in that order: 1500 nM and 160 nM. On to `Cc1nc(N2CCC3(CCC[C@H]3N)CC2)n2ccnc2c1-c1ccc(Cl)c(Cl)c1` [Example 25, (R)-8-(8-(3,4-dichlorophenyl)-7-methylimidazo[1,2-c]pyrimidin-5-yl)-8-azaspiro[4.5]decan-1-amine], for which the EC50 with NCI-H358 cells (Homo sapiens, NCI-H358, 168 h) turned out to be 1500 nM. Moreover, the IC50 in assay [1] was 95 nM.

Regarding `Cc1nc(N2CCC3(CCC[C@H]3N)CC2)n2ccnc2c1-c1ccc(Cl)cc1Cl` [Example 26, (R)-8-(8-(2,4-dichlorophenyl)-7-methylimidazo[1,2-c]pyrimidin-5-yl)-8-azaspiro[4.5]decan-1-amine], the half-maximal effective concentration (EC50) in the assay with NCI-H358 cells (Homo sapiens, NCI-H358, 168 h) amounted to 360 nM. The concentration for half-maximal inhibition (IC50) in assay [1] amounted to 25 nM.

Consider `Cc1nc(N2CCC3(CCC[C@H]3N)CC2)n2ccnc2c1-c1ccnc(F)c1Cl` [Example 28, (R)-8-(8-(3-chloro-2-fluoropyridin-4-yl)-7-methylimidazo[1,2-c]pyrimidin-5-yl)-8-azaspiro[4.5]decan-1-amine], for which the EC50 with NCI-H358 cells (Homo sapiens, NCI-H358, 168 h) was 380 nM. The IC50 in assay [1] is 74 nM.

Consider `Cc1nc(N2CCC3(CCC[C@H]3N)CC2)n2ccnc2c1-c1ccnc(N)c1Cl` [Example 29, (R)-8-(8-(2-amino-3-chloropyridin-4-yl)-7-methylimidazo[1,2-c]pyrimidin-5-yl)-8-azaspiro[4.5]decan-1-amine], for which, in the assay with NCI-H358 cells (Homo sapiens, NCI-H358, 168 h), the EC50 stood at 5500 nM. Moreover, the IC50 in assay [1] was 1300 nM. For `C[C@@H]1OCC2(CCN(c3ncc(Sc4ccnc(N)c4Cl)c4nccn34)CC2)[C@@H]1N` [Example 31, (3S,4S)-8-(8-((2-amino-3-chloropyridin-4-yl)thio)imidazo[1,2-c]pyrimidin-5-yl)-3-methyl-2-oxa-8-azaspiro[4.5]decan-4-amine], in that order: 53 nM and 5 nM.

As for `Cc1nc(N2CCC3(CC2)C[C@@H](O)C[C@H]3N)n2ccnc2c1-c1cccc(Cl)c1Cl` [Example 33, (2R,4R)-4-amino-8-(8-(2,3-dichlorophenyl)-7-methylimidazo[1,2-c]pyrimidin-5-yl)-8-azaspiro[4.5]decan-2-ol], in the assay on NCI-H358 cells (Homo sapiens, NCI-H358, 168 h), the EC50 was 32 nM. Also, the IC50 in assay [1] was 3.1 nM. As for `N[C@@H]1C[C@H](O)CC12CCN(c1ncc(Sc3cccc(Cl)c3Cl)c3nccn13)CC2` [Example 35, (2R,4R)-4-amino-8-(8-((2,3-dichlorophenyl)thio)imidazo[1,2-c]pyrimidin-5-yl)-8-azaspiro[4.5]decan-2-ol], in the assay on NCI-H358 cells (Homo sapiens, NCI-H358, 168 h), the EC50 was found to be 32 nM. The concentration for half-maximal inhibition (IC50) in assay [1] was determined as 1.2 nM. `CC1(N)CCN(c2ncc(Sc3ccnc(N)c3Cl)c3nccn23)CC1` [Example 36]: in the assay on NCI-H358 cells (Homo sapiens, NCI-H358, 168 h), the EC50 is greater than 12500 nM. As for `C[C@@H]1OCC2(CCN(c3ncc(Sc4cc(N)ncc4C(F)(F)F)c4nccn34)CC2)[C@@H]1N` [Example 38, (3S,4S)-8-(8-((2-amino-5-(trifluoromethyl)pyridin-4-yl)thio)imidazo[1,2-c]pyrimidin-5-yl)-3-methyl-2-oxa-8-azaspiro[4.5]decan-4-amine], in the assay on NCI-H358 cells (Homo sapiens, NCI-H358, 168 h), the EC50 was found to be 59 nM. For the same compound, the IC50 in assay [1] stood at 5.9 nM. On to `C[C@@H]1OCC2(CCN(c3ncc(Sc4cc(N)ncc4C(F)(F)F)c4ncc(Cl)n34)CC2)[C@@H]1N` [Example 39], for which the EC50 with NCI-H358 cells (Homo sapiens, NCI-H358, 168 h) is 570 nM. For the compound `N[C@@H]1CCCC12CCN(c1ncc(Sc3cccc4ncccc34)c3nccn13)CC2` [Example 84], the EC50 with NCI-H358 cells (Homo sapiens, NCI-H358, 168 h) was 240 nM. For the compound `Cc1nc(N2CCC3(CC2)Cc2cc(F)ccc2[C@H]3N)n2ccnc2c1-c1cccc(Cl)c1Cl` [Example 133, (S)-1′-(8-(2,3-dichlorophenyl)-7-methylimidazo[1,2-c]pyrimidin-5-yl)-5-fluoro-1,3-dihydrospiro[indene-2,4′-piperidin]-1-amine], the half-maximal effective concentration (EC50) in the assay on NCI-H358 cells (Homo sapiens, NCI-H358, 168 h) was 21 nM. Consider `Nc1cccc(Sc2cnc(N3CCC4(CC3)Cc3ccccc3[C@H]4N)n3ccnc23)c1Cl` [Example 137, (S)-1′-(8-((3-amino-2-chlorophenyl)thio)imidazo[1,2-c]pyrimidin-5-yl)-1,3-dihydrospiro[indene-2,4′-piperidin]-1-amine], for which, in the assay with NCI-H358 cells (Homo sapiens, NCI-H358, 168 h), the 50% effective concentration (EC50) was 12 nM.
